Numbered stars: 1 amine (or outer) side, 2 acyl side, 3 side chain; on linkers, the order of the positions; unused ones are H or OH. Bridge positions count the residues as written; N and C are the ends. Square brackets hold non-standard residues; d marks the D form. Peptide text beside a SMILES is read from it. * marks the point of attachment. X1 = CC[C@H](C)[C@@H](N[*:1])[C@@H](O)CC(=O)O[C@H](C(=O)[C@H](C)C(=O)[*:2])C(C)C; NMeY = CN[C@@H](Cc1ccc(O)cc1)C(=O)O; dNMeL = CN[C@H](CC(C)C)C(=O)O; Pyruvoyl = CC(=O)C(=O)*
How the values were obtained:
[1] = solubilised aplidine; cited from earlier work
[2] = test system: primary MM tumor cells co-cultured with BMSCs; experiment: Co-culture of MM cells with bone marrow stromal cells, flow cytometry of viable CD138+ cells; assay type: cell-based, human; conditions: 48 hours, flow-cytometric determination of cell death (FIG. 3)
Experimental: (§2) We therefore investigated whether aplidine can also overcome the molecular sequelae of the interaction of BMSCs with MM cells and achieve anti-MM activity in this context. We thus performed in vitro co-culture assays of MM cells with BMSCs as previously described: BMSCs were grown on 24-well plates to confluency. […] Flow cytometric analysis was performed to detect the CD138+ population of viable MM cells and the effect of aplidine on MM cell viability was expressed as % of viable cell numbers in comparison to the respective vehicle-treated cultures.

[3] = test system: multiple myeloma line overexpressing Bcl-2; experiment: XTT or MTS cell viability assay, Bcl-2 overexpressing MM line; assay type: cell-based; conditions: cells in culture, XTT or MTS (FIG. 7)
Experimental: Aplidine was tested against various established cells in culture.

[4] = test system: non-small-cell lung tumor cells; conditions: cited from earlier work
BMSCs = conditions: at the aplidine doses used in the co-culture
Experimental: as §2

[5] = test system: multiple myeloma lines resistant to dexamethasone (MM 1.R); conditions: cells in culture, XTT or MTS (FIG. 6)
Experimental: The cells used were: • multiple myeloma cells (MM1.S) • multiple myeloma lines resistant to dexamethasone (MM 1.R) • a multiple myeloma line overexpressing Bcl-2
For established cell lines, cells were plated in 96 well plates and allowed to grow for 24 h prior to addition of drugs. Cells were incubated with drug for indicated times and cell viability was measured by the XTT or MTS assay using an automated plate reader.

colon CX-1 = conditions: mice bearing human xenografted tumors; cited from earlier work
[6] = test system: MM-1S human MM cells stably transfected with myristoylated Akt; experiment: MTT survival assay, myrAkt-transfected MM-1S cells; assay type: cell-based; conditions: myrAkt-transfected MM-1S cells (FIG. 1)
Experimental: (§1) Cell survival was examined using the 3-(4,5-dimethylthiazol-2-yl)-2,5-diphenyltetrazolium bromide (MTT; Sigma Chemical, St Louis, Mo.) colorimetric assay, as previously described (Mitsiades C. S. et al. Blood. 2001, 98, 795-804; Mitsiades N. et al. Proc Natl Acad Sci USA. 2002, 99, 14374-14379; Mitsiades N. et al. Blood. 2003, 101, 2377-2380). Briefly, cells were plated in 48-well plates at 70% to 80% confluence in the presence of 2.5% fetal bovine serum (FBS) and in the presence of Aplidine at final concentration of 0-100 nM or DMSO vehicle control. At the end of each treatment, cells were incubated with 1 mg/mL MTT for 4 hours at 37° C.; a mixture of isopropanol and 1 N HCl (23:2, vol/vol) was then added under vigorous pipetting to dissolve the formazan crystals. Dye absorbance (A) in viable cells was measured at 570 nm, with 630 nm as a reference wavelength. Cell viability was estimated as a percentage of the value of untreated controls. All experiments were repeated at least 3 times, and each experimental condition was repeated at least in triplicate wells in each experiment. Data reported are average values±SD of representative experiments. […]

primary MM tumor cells [7] = experiment: MTT survival assay, combination with doxorubicin; assay type: cell-based, human; conditions: aplidine 2 nM with doxorubicin 10 ng/mL, primary MM tumor sample (FIG. 5)
B16 melanoma = conditions: murine tumors such as B16 melanoma; cited from earlier work
VEGF secretion = experiment: Quantification of VEGF secretion by ELISA; assay type: cell-based, human; conditions: 20 nM
Excerpt: MM cell adhesion to BMSCs induces increased secretion of angiogenic cytokines, such as vascular endothelial growth factor (VEGF), an event deemed of major significance for the recruitment of new blood vessels at the sites of MM cells in the BM milieu. […] The supernatants were collected and assayed for VEGF concentration by enzyme-linked immunosorbent assay (ELISA) using a commercially available kit (VEGF ELISA kit; R&D Systems), according to the instructions of the manufacturer.

[8] = phase I/II trials; cited from earlier work
[9] = test system: NCI human in vitro panel cell lines; conditions: cited from earlier work
primary MM tumor cells [10] = experiment: MTT survival assay, primary MM tumor cells; assay type: cell-based, human; conditions: 10 primary tumor specimens from multi-drug resistant MM patients; 20 nM for 48 hrs (FIG. 2)
Experimental: as §1

breast MX-1 = conditions: mice bearing human xenografted tumors; cited from earlier work
colon tumor cells = conditions: cited from earlier work
[11] = test system: MM-1S human MM cells stably transfected with Bcl-2; experiment: MTT survival assay, Bcl-2-transfected MM-1S cells; assay type: cell-based; conditions: Bcl-2-transfected MM-1S cells (FIG. 1)
Experimental: as §1

[12] = test system: gastric, prostate and Burkitts lymphoma human xenografts; conditions: subcutaneous implanted gastric; cited from earlier work
human MM cell lines = experiment: MTT colorimetric survival assay, panel of MM cell lines; assay type: cell-based; conditions: for the overwhelming majority of the MM cell lines of the panel (FIG. 1), read-out: IC50 doses
Experimental: as §1

bladder carcinoma = bladder carcinoma in the hollow fiber; cited from earlier work

CC[C@H](C)[C@H]1NC(=O)[C@@H](NC(=O)[C@@H](CC(C)C)N(C)C(=O)[C@@H]2CCCN2C(=O)C(C)=O)[C@@H](C)OC(=O)[C@H](Cc2ccc(OC)cc2)N(C)C(=O)[C@@H]2CCCN2C(=O)[C@H](CC(C)C)NC(=O)[C@@H](C)C(=O)[C@H](C(C)C)OC(=O)C[C@@H]1O [Aplidine, Dehydrodidemnin B] (Pyruvoyl-P[dNMeL]T[X1]LP[NMeY](Me); ester 3-C)
degradation under heat and light stress testing conditions [1]: substantial degradation
effect of MM-BMSC interaction on in vitro anti-MM activity [2]: did not significantly attenuate
growth of Bcl-2 overexpressing MM cells [3]: inhibits growth
IC50 [4]: 0.18 nM
survival of BMSCs (BMSCs): did not significantly affect
growth inhibition of dexamethasone resistant MM1.R cells compared with MM1.S [5]: as effectively as the parenteral line (MM1.S)
in vivo activity (colon CX-1): confirm activity
sensitivity to aplidine vs. empty-vector transfected cells [6]: did not have lower sensitivity
responsiveness of MM cells to doxorubicin in combination with Aplidine (primary MM tumor cells [7]): increased responsiveness to doxorubicin
in vivo activity (B16 melanoma): in vivo activity
VEGF secretion when MM cells are co-cultured with BMSCs (VEGF secretion; 12-hour treatment, co-culture (FIG. 4B)): counteract the increase in VEGF secretion
secretion of VEGF by MM cells (VEGF secretion; 12-hour treatment, primary MM tumor cells (FIGS. 4A and 4B)): suppress the secretion of VEGF
VEGF secretion by BMSCs (VEGF secretion; 12 hrs, BMSCs (FIG. 4B)): suppresses the VEGF secretion
dose-limiting toxicity [8]: muscular toxicity
myelosuppression [8]: remarkable lack of severe myelosuppression
selectivity in the NCI human in vitro panel [9]: selectivity for non-small-cell lung cancer (NSCLC), melanoma, ovarian and colorectal cancer cell lines
in vitro anti-MM activity (primary MM tumor cells [10]): consistent with the results obtained from the testing of our cell line panel
in vivo activity (breast MX-1): confirm activity
IC50 (colon tumor cells): 0.45 nM
sensitivity to aplidine vs. empty-vector transfected cells [11]: did not have lower sensitivity
in vivo antitumor activity [12]: in vivo antitumor activity
IC50 (human MM cell lines): ≤ 10 nM
in vivo antitumor activity (bladder carcinoma): in vivo antitumor activity

Source: patent US7381703B2, “Aplidine for multiple myeloma treatment” (Dana-Faber Cancer Institute, Inc., priority 2003, dated 2008)
